In patent US20240317736A1, “DEUTERATED DERIVATIVE AS ATX INHIBITOR, AND APPLICATION THEREOF” (Xizang Haisco Pharmaceutical Co., Ltd., priority 2020, published 2024):
Read-outs that look alike come from different tables or passages of the source.

Experiments:
[1] = Pharmacokinetic test in rats; type: in vivo; conditions: male, SD, rat, plasma; for Cmax: read-out: C0 or Cmax; for bioavailability: PO 5 mg/kg vs IV 1 mg/kg
Description: Test objective: test compounds were given to SD rats via single-dose intravenous and intragastric administration, the concentrations of the test compounds in plasma of rats were measured, and the pharmacokinetic characteristics and bioavailability of test compounds in rats were evaluated.
Test animals: male SD rats, about 220 g, 6-8 weeks old, six rats/compound, purchased from Chengdu Ddossy Experimental Animals Co., Ltd.
Test method: on the day of the test, 6 SD rats were randomly grouped according to their body weights. The rats were fasted with water available for 12-14 h one day before the administration, and were fed 4 h after the administration. The administration was performed according to Table 5.
Before and after the administration, 0.1 mL of blood was taken from the orbits of the rats under isoflurane anaesthesia, and placed in an EDTAK2 centrifuge tube. Centrifugation was performed at 5000 rpm at 4° C. for 10 min, and plasma was collected.
Time points for sample collection in group G1 comprise 0 min, 5 min, 15 min, 30 min, 1 h, 2 h, 4 h, 6 h, 8 h and 24 h.
Time points for sample collection in group G2 comprise 0 min, 15 min, 30 min, 1 h, 2 h, 4 h, 6 h, 8 h and 24 h.
30 μL of each of plasma samples, standard curve samples and quality control samples was taken, and 200 μL of acetonitrile solution containing an internal standard was added, and the resulting mixture was homogeneously mixed by vortex and centrifuged at 4° C. at 12000 rpm for 10 min. 170 μL of the supernatant was taken to a 96-well plate, and LC-MS/MS analysis was performed, wherein the sample size was 2 μL.
The main pharmacokinetic parameters were analyzed by a non-compartmental model using WinNonlin 8.0 software.

[2] = target: T1, autocrine motility factor (Homo sapiens, UniProt Q13822); assay: Inhibition of LPA formation in mixed ex vivo human plasma; type: biochemical; conditions: 37° C., 2 h
T1 construct: Whole blood was anticoagulated with heparin and centrifuged, and then plasma was collected; from tissue; host or cells: pooled human plasma (heparin-anticoagulated whole blood)
Description: Autocrine motility factor is a phosphodiesterase in plasma that converts lysophosphatidylcholine (LPC) to lysophosphatidic acid (LPA). Therefore, the formation of LPA can be used to evaluate the potency of an autocrine motility factor inhibitor. The potency of the compound in mixed ex vivo human plasma was evaluated.
Whole blood was anticoagulated with heparin and centrifuged, and then plasma was collected. 5 μL of gradient-diluted test compounds or DMSO was added to 95 μL of plasma and incubated at 37° C. for 2 h. After that, a stop buffer (40 mM disodium hydrogen phosphate buffer, containing 30 mM of citric acid, pH=4) was added. LPA in plasma was detected by LC-MSMS before and after incubation. In order to determine the concentration of LPA 18:2 or LPA 20:4 in the plasma in study, calibration standard substances at 20000 ng/mL, 10000 ng/mL, 5000 ng/ml, 2000 ng/ml, 1000 ng/mL, 500 ng/mL, 200 ng/ml, 100 ng/mL, 50 ng/ml, 20 ng/mL and 10 ng/ml for LPA 18:2 or LPA 20:4 were prepared by performing serial dilution in butanol. 3 μL of calibration standard solution was added to 27.0 μL of blank plasmas in each 1.5 mL microcentrifuge tube to produce 1× calibration standard substances. 30.0 μL of standard substances or plasma in study was added to each 1.5 mL microcentrifuge tube. 200 μL of butanol (containing 25.0 ng/mL LPA 17:0 for internal control) was added to each 1.5 mL microcentrifuge tube containing the plasma in study or calibration standard substance. Vortex oscillation was performed for 1 min, and centrifugation was performed at 10000 rpm for 10 min. 180 μL of the supernatant was transferred to a 96-well plate, and LC/MS/MS was used together with the standard substance to quantify the concentration of LPA 18:2 in the plasma. In short, 8 μL of the solution was injected, and LC-MS/MS analysis using an ACQUITY UPLC BEH C18 column (2.1×50 mm, 1.7 μm) was performed, wherein mobile phase A [20 mM NH4OAC aqueous solution (0.1% FA)] and mobile phase B [5 mM NH4OAC aqueous solution/0.2% FA in ACN=5:95] were used. The parameters of a mass spectrometer for LPA 18:2 were optimized by means of deprotonation of molecular ions. For LPA 18:2 at m/z 433.2([M−H]−), LPA 20:4 at 457.2, and LPA 18:2 and LPA 20:4 both at m/z 152.8, abundant product ions were obtained. Quantitative data were obtained in a multiple reaction monitoring (MRM) negative electrospray ionization mode.
The inhibition rates of compounds at different concentrations on LPA formation were determined by comparing the changes of LPA levels in incubated and unincubated plasma. The IC50 of the compounds was calculated as a calculation inhibition rate, and the relative concentration at each well=the concentration at each well−the average concentration at baseline.
Inhibition rate %=(average relative concentration at control well−average relative concentration at test well)/average relative concentration at control well×100%. The curve was plotted with the inhibition rates as a y axis and the compound concentrations as an x axis, and fitting was performed by GraphPad Prism7.0 using log (inhibitor) and normalized response (variable slope).

[3] = LPA 18:2 by LC-MS/MS, read-out: IC50 for inhibiting LPA formation (18:2)
[4] = LPA 20:4 by LC-MS/MS, read-out: IC50 for inhibiting LPA formation (20:4)

Compound	AUC ([1]; IV 1 mg/kg) [ng·h/mL]	half-life ([1]; IV 1 mg/kg) [h]	Cmax ([1]; IV 1 mg/kg) [ng/mL]	AUC ([1]; PO 5 mg/kg) [ng·h/mL]	Tmax ([1]; PO 5 mg/kg) [h]	half-life ([1]; PO 5 mg/kg) [h]	bioavailability [1] [%]	Cmax ([1]; PO 5 mg/kg) [ng/mL]	IC50 [2, 3] [nM]	IC50 [2, 4] [nM]
[2H]C([2H])([2H])C([2H])([2H])c1nn2cc(F)c(N3CCN(CC(=O)N4CC(O)C4)CC3)cc2c1N(C)c1nc(-c2ccc(F)cc2)c(C#N)s1 [Compound 1, 2-((2-(ethyl-d5)-6-fluoro-5-(4-(2-(3-hydroxyazetidin-1-yl)-2-oxoethyl)piperazin-1-yl)pyrazolo[1,5-a]pyridin-3-yl)(methyl)amino)-4-(4-fluorophenyl)thiazole-5-carbonitrile]	1060 ± 124	2.6 ± 0.61	967 ± 106	1170 ± 46	4 ± 2	6.4 ± 2.4	22.1 ± 0.87	181 ± 10	46	48.5
[2H]C([2H])([2H])N(c1nc(-c2ccc(F)cc2)c(C#N)s1)c1c(C([2H])([2H])C([2H])([2H])[2H])nn2cc(F)c(N3CCN(CC(=O)N4CC(O)C4)CC3)cc12 [Compound 2, 2-((2-(ethyl-d5)-6-fluoro-5-(4-(2-(3-hydroxyazetidin-1-yl)-2-oxoethyl)piperazin-1-yl)pyrazolo[1,5-a]pyridin-3-yl)(methyl-d3)amino)-4-(4-fluorophenyl)thiazole-5-carbonitrile]	1330 ± 83	2.4 ± 0.35	1030 ± 62	2570 ± 449	4.33 ± 2.9	2.87 ± 0.15	38.6 ± 6.7	297 ± 105	52	55.3
[2H]C1([2H])N(CC(=O)N2CC(O)C2)C([2H])([2H])C([2H])([2H])N(c2cc3c(N(C)c4nc(-c5ccc(F)cc5)c(C#N)s4)c(CC)nn3cc2F)C1([2H])[2H] [Compound 4, 2-((2-ethyl-6-fluoro-5-(4-(2-(3-hydroxyazetidin-1-yl)-2-oxoethyl)piperazin-1-yl-2,2,3,3,5,5,6,6-d8)pyrazolo[1,5-a]pyridin-3-yl)(methyl)amino)-4-(4-fluorophenyl)thiazole-5-carbonitrile]									51.8	54.8
[2H]c1c([2H])c(-c2nc(N(C)c3c(CC)nn4cc(F)c(N5CCN(CC(=O)N6CC(O)C6)CC5)cc34)sc2C#N)c([2H])c([2H])c1F [Compound 9, 2-((2-ethyl-6-fluoro-5-(4-(2-(3-hydroxyazetidin-1-yl)-2-oxoethyl)piperazin-1-yl)pyrazolo[1,5-a]pyridin-3-yl)(methyl)amino)-4-(4-fluorophenyl-2,3,5,6-d4)thiazole-5-carbonitrile]	943 ± 109	1.93 ± 0.072	748 ± 187	2420 ± 860	1.17 ± 0.76	2.43 ± 0.33	51.3 ± 18	399 ± 137		
[2H]c1c([2H])c(-c2nc(N(c3c(CC)nn4cc(F)c(N5CCN(CC(=O)N6CC(O)C6)CC5)cc34)C([2H])([2H])[2H])sc2C#N)c([2H])c([2H])c1F [Compound 10, 2-((2-ethyl-6-fluoro-5-(4-(2-(3-hydroxyazetidin-1-yl)-2-oxoethyl)piperazin-1-yl)pyrazolo[1,5-a]pyridin-3-yl)(methyl-d3)amino)-4-(4-fluorophenyl-2,3,5,6-d4)thiazole-5-carbonitrile]	1050 ± 84	2.05 ± 0.29	813 ± 85	1960 ± 858	2.83 ± 2	2.63 ± 0.071	37.3 ± 6	234 ± 136		
